pEC50: −log10 of the molar value. In brackets after ≈: the same amount, converted by molar mass.

The target of the first data set is T1, Cannabinoid receptor 1 (Homo sapiens, UniProt P21554). Kind of data set: Positive allosteric modulatory activity at human CB1 receptor expressed in CHO-K1 cells assessed as increase in CP55940-induced beta-arrestin recruitment […] and measured after 60 mins by PathHunter assay. Type of data set: cell-based.
T1 sequence (P21554 whole entry): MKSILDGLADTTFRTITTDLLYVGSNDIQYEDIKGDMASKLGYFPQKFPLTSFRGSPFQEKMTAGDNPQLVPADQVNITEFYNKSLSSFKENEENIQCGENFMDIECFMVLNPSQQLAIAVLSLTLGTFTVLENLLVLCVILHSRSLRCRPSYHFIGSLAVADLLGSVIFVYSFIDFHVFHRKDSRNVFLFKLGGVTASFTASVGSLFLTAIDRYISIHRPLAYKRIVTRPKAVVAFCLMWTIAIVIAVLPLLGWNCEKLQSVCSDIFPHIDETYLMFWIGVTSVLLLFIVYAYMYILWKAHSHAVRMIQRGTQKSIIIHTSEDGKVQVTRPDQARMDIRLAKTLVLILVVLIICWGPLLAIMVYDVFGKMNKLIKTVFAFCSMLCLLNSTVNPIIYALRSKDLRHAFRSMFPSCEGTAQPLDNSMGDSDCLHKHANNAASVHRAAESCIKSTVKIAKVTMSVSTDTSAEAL
Conditions: not given
The pEC50 is the negative decadic logarithm of the EC50, by convention in mol/L. On to `CC(C)(C)c1ccc(C(C[N+](=O)[O-])c2c(-c3ccccc3)[nH]c3ccccc23)cc1` (stereo unspecified), for which the pEC50 is less than 5.00.

With `O=[N+]([O-])CC(c1ncco1)c1c(-c2ccccc2)[nH]c2ccccc12` (stereo unspecified), the negative logarithm of the EC50 (pEC50) was less than 5.00.

As to `O=[N+]([O-])CC(c1ccccc1N1CCCC1)c1c(-c2ccccc2)[nH]c2ccccc12` (stereo unspecified), the pEC50 is less than 5.00.

For `O=[N+]([O-])CC(c1ccc(C(F)(F)F)cc1)c1c(-c2ccccc2)[nH]c2ccccc12` (stereo unspecified), the pEC50 is less than 5.00.

Turning to `O=[N+]([O-])CC(c1c(Cl)cccc1Cl)c1c(-c2ccccc2)[nH]c2ccccc12` (stereo unspecified), the pEC50 was less than 5.00.

Consider `Cc1ccccc1C(C[N+](=O)[O-])c1c(-c2ccccc2)[nH]c2ccccc12` (stereo unspecified), for which the pEC50 was 7.24.

As for `O=[N+]([O-])CC(c1ccc(Cl)cc1)c1c(-c2ccccc2)[nH]c2ccccc12` (stereo unspecified), the pEC50 is less than 5.00.

Regarding `O=[N+]([O-])CC(c1ccc(N2CCCCC2)cc1)c1c(-c2ccccc2)[nH]c2ccccc12` (stereo unspecified), the pEC50 is 5.61.

Regarding `O=[N+]([O-])CC(c1nccs1)c1c(-c2ccccc2)[nH]c2ccccc12` (stereo unspecified), the pEC50 is 6.48.

For the molecule `COc1ccc(C(C[N+](=O)[O-])c2c(-c3ccccc3)[nH]c3ccccc23)cc1` (stereo unspecified), the pEC50 was less than 5.00.

As to `O=[N+]([O-])CC(c1ccco1)c1c(-c2ccccc2)[nH]c2ccccc12` (stereo unspecified), the pEC50 was 6.18.

Consider `O=[N+]([O-])CC(c1cccc(C(F)(F)F)c1)c1c(-c2ccccc2)[nH]c2ccccc12` (stereo unspecified), for which the pEC50 is less than 5.00.

Consider `O=[N+]([O-])CC(c1cccc(Cl)c1)c1c(-c2ccccc2)[nH]c2ccccc12` (stereo unspecified), for which the pEC50 was 5.53.

Take `O=[N+]([O-])CC(Cc1ccccc1)c1c(-c2ccccc2)[nH]c2ccccc12` (stereo unspecified): the pEC50 was less than 5.00.

Consider `COc1ccccc1C(C[N+](=O)[O-])c1c(-c2ccccc2)[nH]c2ccccc12` (stereo unspecified), for which the pEC50 was 5.73.

Turning to `O=[N+]([O-])CC(c1ccc2ccccc2c1)c1c(-c2ccccc2)[nH]c2ccccc12` (stereo unspecified), the pEC50 was 5.63.

For `Cc1ccc2c(C(C[N+](=O)[O-])c3ncco3)c(-c3ccccc3)[nH]c2c1` (stereo unspecified), the pEC50 is less than 5.00.

As for `O=[N+]([O-])CC(c1cccs1)c1c(-c2ccccc2)[nH]c2ccccc12` (stereo unspecified), the pEC50 was 6.23.

As for `Cn1cncc1C(C[N+](=O)[O-])c1c(-c2ccccc2)[nH]c2ccccc12` (stereo unspecified), the pEC50 is less than 5.00.

As for `O=[N+]([O-])CC(c1cccc2ccccc12)c1c(-c2ccccc2)[nH]c2ccccc12` (stereo unspecified), the pEC50 is less than 5.00.

The target in the next data set is T1, Cannabinoid receptor 1. Kind of data set: Positive allosteric modulatory activity at human CB1 receptor expressed in CHO-K1 cells assessed as increase in CP55940-induced inhibition of forskolin-stimulated cAMP production preincubated for 30 mins followed by CP55940 addition and measured after 60 mins by Hit-hunter assay relative to control. It counts as functional, cell-based. Conditions: filed as positive allosteric modulator. (Cyclic AMP is a second messenger, typically raised through Gs and lowered through Gi signalling.)
One may read the Emax as the size of the effect at its maximum, as opposed to the concentration needed. Turning to `CC(C)(C)c1ccc(C(C[N+](=O)[O-])c2c(-c3ccccc3)[nH]c3ccccc23)cc1` (stereo unspecified), the maximum response (Emax) worked out at 109%.

As to `O=[N+]([O-])CC(c1ncco1)c1c(-c2ccccc2)[nH]c2ccccc12` (stereo unspecified), the maximum response (Emax) came out at 56.6%.

In the case of `O=[N+]([O-])CC(c1ccccc1N1CCCC1)c1c(-c2ccccc2)[nH]c2ccccc12` (stereo unspecified), the Emax amounted to 75.9%.

For `O=[N+]([O-])CC(c1ccc(C(F)(F)F)cc1)c1c(-c2ccccc2)[nH]c2ccccc12` (stereo unspecified), the Emax came out at 65.1%.

Regarding `O=[N+]([O-])CC(c1c(Cl)cccc1Cl)c1c(-c2ccccc2)[nH]c2ccccc12` (stereo unspecified), the Emax is 128%.

Regarding `Cc1ccccc1C(C[N+](=O)[O-])c1c(-c2ccccc2)[nH]c2ccccc12` (stereo unspecified), the Emax is 81.7%.

In the case of `O=[N+]([O-])CC(c1ccc(Cl)cc1)c1c(-c2ccccc2)[nH]c2ccccc12` (stereo unspecified), the Emax came out at 74.8%.

Turning to `O=[N+]([O-])CC(c1ccc(N2CCCCC2)cc1)c1c(-c2ccccc2)[nH]c2ccccc12` (stereo unspecified), the Emax is 125%.

`O=[N+]([O-])CC(c1nccs1)c1c(-c2ccccc2)[nH]c2ccccc12` (stereo unspecified): the Emax is 83.7%.

Turning to `COc1ccc(C(C[N+](=O)[O-])c2c(-c3ccccc3)[nH]c3ccccc23)cc1` (stereo unspecified), the Emax came out at 119%.

Regarding `O=[N+]([O-])CC(c1ccco1)c1c(-c2ccccc2)[nH]c2ccccc12` (stereo unspecified), the Emax is 99.8%.

As for `O=[N+]([O-])CC(c1cccc(C(F)(F)F)c1)c1c(-c2ccccc2)[nH]c2ccccc12` (stereo unspecified), the Emax was 151%.

For the molecule `O=[N+]([O-])CC(c1cccc(Cl)c1)c1c(-c2ccccc2)[nH]c2ccccc12` (stereo unspecified), the Emax came to 121%.

Consider `O=[N+]([O-])CC(Cc1ccccc1)c1c(-c2ccccc2)[nH]c2ccccc12` (stereo unspecified), for which the Emax came out at 115%.

For the molecule `COc1ccccc1C(C[N+](=O)[O-])c1c(-c2ccccc2)[nH]c2ccccc12` (stereo unspecified), the Emax came to 118%.

With `O=[N+]([O-])CC(c1ccc2ccccc2c1)c1c(-c2ccccc2)[nH]c2ccccc12` (stereo unspecified), the Emax is 113%.

Consider `Cc1ccc2c(C(C[N+](=O)[O-])c3ncco3)c(-c3ccccc3)[nH]c2c1` (stereo unspecified), for which the Emax stood at 67.2%.

For the molecule `O=[N+]([O-])CC(c1cccs1)c1c(-c2ccccc2)[nH]c2ccccc12` (stereo unspecified), the Emax came to 116%.

Consider `Cn1cncc1C(C[N+](=O)[O-])c1c(-c2ccccc2)[nH]c2ccccc12` (stereo unspecified), for which the Emax was 46.1%.

With `O=[N+]([O-])CC(c1cccc2ccccc12)c1c(-c2ccccc2)[nH]c2ccccc12` (stereo unspecified), the Emax worked out at 62.2%.

System in a further data set: not listed separately
As to the kind of experiment: physchem. Conditions: PBS, pH 7.4.
In general, kinetic solubility refers to the concentration staying in solution when a stock, usually in DMSO, is diluted into the medium. `Cc1ccc2c(C(C[N+](=O)[O-])c3ncco3)c(-c3ccccc3)[nH]c2c1` (stereo unspecified) registered a solubility (kinetic) at 2 h of 12.5 µM (≈ 4.34 µg/mL).

In another data set the target is T1, Cannabinoid receptor 1. As to the kind of experiment: Positive allosteric modulatory activity at human CB1 receptor expressed in CHO-K1 cells assessed as increase in CP55940-induced inhibition of forskolin-stimulated cAMP production preincubated for 30 mins […] by Hit-hunter assay. It counts as functional, cell-based.
Conditions: not given
As for `CC(C)(C)c1ccc(C(C[N+](=O)[O-])c2c(-c3ccccc3)[nH]c3ccccc23)cc1` (stereo unspecified), the pEC50 is 6.69.

Take `O=[N+]([O-])CC(c1ncco1)c1c(-c2ccccc2)[nH]c2ccccc12` (stereo unspecified): the pEC50 is 6.07.

Consider `O=[N+]([O-])CC(c1ccccc1N1CCCC1)c1c(-c2ccccc2)[nH]c2ccccc12` (stereo unspecified), for which the pEC50 is 5.74.

In the case of `O=[N+]([O-])CC(c1ccc(C(F)(F)F)cc1)c1c(-c2ccccc2)[nH]c2ccccc12` (stereo unspecified), the pEC50 was less than 5.00.

On to `O=[N+]([O-])CC(c1c(Cl)cccc1Cl)c1c(-c2ccccc2)[nH]c2ccccc12` (stereo unspecified), for which the pEC50 was 6.24.

In the case of `Cc1ccccc1C(C[N+](=O)[O-])c1c(-c2ccccc2)[nH]c2ccccc12` (stereo unspecified), the pEC50 is 8.52.

For the molecule `O=[N+]([O-])CC(c1ccc(Cl)cc1)c1c(-c2ccccc2)[nH]c2ccccc12` (stereo unspecified), the pEC50 is 5.88.

Take `O=[N+]([O-])CC(c1ccc(N2CCCCC2)cc1)c1c(-c2ccccc2)[nH]c2ccccc12` (stereo unspecified): the pEC50 was 6.32.

Take `O=[N+]([O-])CC(c1nccs1)c1c(-c2ccccc2)[nH]c2ccccc12` (stereo unspecified): the pEC50 is 6.72.

Turning to `COc1ccc(C(C[N+](=O)[O-])c2c(-c3ccccc3)[nH]c3ccccc23)cc1` (stereo unspecified), the pEC50 was 5.93.

With `O=[N+]([O-])CC(c1ccco1)c1c(-c2ccccc2)[nH]c2ccccc12` (stereo unspecified), the pEC50 is 6.61.

For `O=[N+]([O-])CC(c1cccc(C(F)(F)F)c1)c1c(-c2ccccc2)[nH]c2ccccc12` (stereo unspecified), the pEC50 is 6.90.

Regarding `O=[N+]([O-])CC(c1cccc(Cl)c1)c1c(-c2ccccc2)[nH]c2ccccc12` (stereo unspecified), the pEC50 was 6.07.

Regarding `O=[N+]([O-])CC(Cc1ccccc1)c1c(-c2ccccc2)[nH]c2ccccc12` (stereo unspecified), the pEC50 is 6.38.

As for `COc1ccccc1C(C[N+](=O)[O-])c1c(-c2ccccc2)[nH]c2ccccc12` (stereo unspecified), the pEC50 is 6.39.

For the molecule `O=[N+]([O-])CC(c1ccc2ccccc2c1)c1c(-c2ccccc2)[nH]c2ccccc12` (stereo unspecified), the pEC50 was 6.32.

For the molecule `Cc1ccc2c(C(C[N+](=O)[O-])c3ncco3)c(-c3ccccc3)[nH]c2c1` (stereo unspecified), the pEC50 is 6.58.

In the case of `O=[N+]([O-])CC(c1cccs1)c1c(-c2ccccc2)[nH]c2ccccc12` (stereo unspecified), the pEC50 was 7.51.

Turning to `Cn1cncc1C(C[N+](=O)[O-])c1c(-c2ccccc2)[nH]c2ccccc12` (stereo unspecified), the pEC50 was less than 5.00.

For the molecule `O=[N+]([O-])CC(c1cccc2ccccc12)c1c(-c2ccccc2)[nH]c2ccccc12` (stereo unspecified), the pEC50 is less than 5.00.

The target of another data set is T1, Cannabinoid receptor 1. Kind of data set: Positive allosteric modulatory activity at human CB1 receptor expressed in CHO-K1 cells assessed as increase in CP55940-induced beta-arrestin recruitment preincubated 90 mins followed by CP55940 addition and measured after 60 mins by PathHunter assay relative to CP55940. It counts as cell-based.
Conditions: not given
(Recruitment of arrestin is a read-out of receptor activation apart from second messengers.)
Consider `CC(C)(C)c1ccc(C(C[N+](=O)[O-])c2c(-c3ccccc3)[nH]c3ccccc23)cc1` (stereo unspecified), for which the Emax was determined as 5.57%.

Turning to `O=[N+]([O-])CC(c1ncco1)c1c(-c2ccccc2)[nH]c2ccccc12` (stereo unspecified), the Emax was found to be 3.21%.

With `O=[N+]([O-])CC(c1ccccc1N1CCCC1)c1c(-c2ccccc2)[nH]c2ccccc12` (stereo unspecified), the Emax was determined as 7.28%.

Regarding `O=[N+]([O-])CC(c1ccc(C(F)(F)F)cc1)c1c(-c2ccccc2)[nH]c2ccccc12` (stereo unspecified), the maximal response (Emax) is 0%.

For `O=[N+]([O-])CC(c1c(Cl)cccc1Cl)c1c(-c2ccccc2)[nH]c2ccccc12` (stereo unspecified), the Emax was 3.72%.

As for `O=[N+]([O-])CC(c1ccc(Cl)cc1)c1c(-c2ccccc2)[nH]c2ccccc12` (stereo unspecified), the Emax was found to be 0%.

Regarding `O=[N+]([O-])CC(c1nccs1)c1c(-c2ccccc2)[nH]c2ccccc12` (stereo unspecified), the Emax turned out to be 32.6%.

Regarding `COc1ccc(C(C[N+](=O)[O-])c2c(-c3ccccc3)[nH]c3ccccc23)cc1` (stereo unspecified), the Emax was 0%.

Take `O=[N+]([O-])CC(c1ccco1)c1c(-c2ccccc2)[nH]c2ccccc12` (stereo unspecified): the Emax was 28.8%.

Regarding `O=[N+]([O-])CC(c1cccc(C(F)(F)F)c1)c1c(-c2ccccc2)[nH]c2ccccc12` (stereo unspecified), the Emax was 0%.

For `O=[N+]([O-])CC(c1cccc(Cl)c1)c1c(-c2ccccc2)[nH]c2ccccc12` (stereo unspecified), the Emax is 16%.

Turning to `O=[N+]([O-])CC(Cc1ccccc1)c1c(-c2ccccc2)[nH]c2ccccc12` (stereo unspecified), the Emax was 0%.

Consider `COc1ccccc1C(C[N+](=O)[O-])c1c(-c2ccccc2)[nH]c2ccccc12` (stereo unspecified), for which the Emax came out at 37%.

As to `O=[N+]([O-])CC(c1ccc2ccccc2c1)c1c(-c2ccccc2)[nH]c2ccccc12` (stereo unspecified), the Emax came out at 31.8%.

Regarding `Cc1ccc2c(C(C[N+](=O)[O-])c3ncco3)c(-c3ccccc3)[nH]c2c1` (stereo unspecified), the Emax stood at 14.5%.

Consider `O=[N+]([O-])CC(c1cccs1)c1c(-c2ccccc2)[nH]c2ccccc12` (stereo unspecified), for which the Emax was 36.1%.

Take `Cn1cncc1C(C[N+](=O)[O-])c1c(-c2ccccc2)[nH]c2ccccc12` (stereo unspecified): the Emax was 0%.

On to `O=[N+]([O-])CC(c1cccc2ccccc12)c1c(-c2ccccc2)[nH]c2ccccc12` (stereo unspecified), for which the Emax came to 0%.

Still in this data set, the particulars now being: filed as positive allosteric modulator.
Regarding `Cc1ccccc1C(C[N+](=O)[O-])c1c(-c2ccccc2)[nH]c2ccccc12` (stereo unspecified), the Emax is 68.5%.

On to `O=[N+]([O-])CC(c1ccc(N2CCCCC2)cc1)c1c(-c2ccccc2)[nH]c2ccccc12` (stereo unspecified), for which the Emax turned out to be 42.1%.

The values above are taken from ChEMBL document CHEMBL4665860, “Focused structure-activity relationship profiling around the 2-phenylindole scaffold of a cannabinoid type-1 receptor agonist-positive allosteric modulator: site-III aromatic-ring congeners with enhanced activity and solubility” (Bioorg Med Chem, 2020).
